According to ChEMBL document CHEMBL3784972, “Optimization of N'-(arylsulfonyl)pyrazoline-1-carboxamidines by exploiting a novel interaction site in the 5-HT6 antagonistic binding pocket” (Bioorg Med Chem Lett, 2016):

Tests used:
in vitro [1] = settings: Sprague Dawley, rat, hepatocytes
in vitro [2] = settings: human, hepatocytes
LLC-PK1 = settings: pig
MDR = assay: in vitro; settings: pig, LLC-PK1
[3] = molecular target: T1, 5-hydroxytryptamine receptor 6 (Homo sapiens, UniProt P50406); assay: Displacement of [3H]-N-Methyl-Lysergic acid diethylamide from human 5-HT6 receptor expressed in CHO cells after 30 mins by liquid scintillation counting analysis; type: cell-based
[4] = molecular target: T1, 5-hydroxytryptamine receptor 6; assay: Antagonist activity at human recombinant 5-HT6 receptor expressed in CHO cells assessed as inhibition of agonist induced intracellular calcium levels by aequorin assay; type: functional, cell-based; settings: read-out: pA2 (converted)
[5] = molecular target: Voltage-gated inwardly rectifying potassium channel KCNH2 (Homo sapiens, UniProt Q12809); assay: Inhibition of human ERG
[6] = molecular target: Serotonin (5-HT) receptor; assay: Binding affinity to 5-HT receptor (unknown origin); type: protein assay, Homo sapiens
Cannabinoid receptor = Cannabinoid receptor (Homo sapiens, UniProt P34972+P21554); assay: Binding affinity to Cannabinoid receptor (unknown origin); type: protein assay
[7] = Fraction unbound in rat brain at 10 mg/kg, po; type: ADME, organism-based
[8] = Lipophilicity, log D of the compound at pH 7; type: physicochemical; settings: buffer
[9] = Binding affinity to alpha adrenergic receptor (unknown origin); set-up: species or system Homo sapiens
[10] = Cmax in rat plasma at 20 mg/kg, po; type: ADME, organism-based; set-up: dose 20 mg/kg, route oral
[11] = Oral bioavailability in rat at 10 mg/kg; type: ADME, organism-based; settings: in vivo
[12] = Clearance in rat at 10 mg/kg, po; type: ADME, organism-based; settings: in vivo
Dopamine receptor = assay: Binding affinity to dopamine receptor (unknown origin); type: protein assay, Homo sapiens
[13] = Tmax in rat CNS at 10 mg/kg, po; type: ADME, organism-based
[14] = Binding affinity to Muscarinic receptor (unknown origin); set-up: species or system Homo sapiens
[15] = Tmax in rat plasma at 10 mg/kg, po; type: ADME, organism-based
[16] = Ratio of drug uptake in rat CNS to plasma at 10 mg/kg, po; type: ADME, organism-based
Rattus norvegicus = assay: Inhibition of cognitive impairment in po dosed rat administered 0.5 hrs before testing; type: functional

T1 sequence (P50406 whole entry): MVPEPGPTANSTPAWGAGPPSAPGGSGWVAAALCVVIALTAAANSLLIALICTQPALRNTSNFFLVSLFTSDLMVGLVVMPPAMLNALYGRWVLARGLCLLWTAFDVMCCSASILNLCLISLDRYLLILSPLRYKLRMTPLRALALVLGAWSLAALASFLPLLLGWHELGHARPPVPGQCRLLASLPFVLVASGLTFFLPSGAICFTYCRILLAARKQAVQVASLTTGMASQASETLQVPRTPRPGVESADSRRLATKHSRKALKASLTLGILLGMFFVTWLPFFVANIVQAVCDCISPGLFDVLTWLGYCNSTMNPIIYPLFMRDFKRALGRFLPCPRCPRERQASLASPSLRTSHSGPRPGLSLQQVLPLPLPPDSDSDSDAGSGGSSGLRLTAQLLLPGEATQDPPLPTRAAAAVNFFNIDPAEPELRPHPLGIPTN
Sequence of Voltage-gated inwardly rectifying potassium channel KCNH2 (Q12809 whole entry): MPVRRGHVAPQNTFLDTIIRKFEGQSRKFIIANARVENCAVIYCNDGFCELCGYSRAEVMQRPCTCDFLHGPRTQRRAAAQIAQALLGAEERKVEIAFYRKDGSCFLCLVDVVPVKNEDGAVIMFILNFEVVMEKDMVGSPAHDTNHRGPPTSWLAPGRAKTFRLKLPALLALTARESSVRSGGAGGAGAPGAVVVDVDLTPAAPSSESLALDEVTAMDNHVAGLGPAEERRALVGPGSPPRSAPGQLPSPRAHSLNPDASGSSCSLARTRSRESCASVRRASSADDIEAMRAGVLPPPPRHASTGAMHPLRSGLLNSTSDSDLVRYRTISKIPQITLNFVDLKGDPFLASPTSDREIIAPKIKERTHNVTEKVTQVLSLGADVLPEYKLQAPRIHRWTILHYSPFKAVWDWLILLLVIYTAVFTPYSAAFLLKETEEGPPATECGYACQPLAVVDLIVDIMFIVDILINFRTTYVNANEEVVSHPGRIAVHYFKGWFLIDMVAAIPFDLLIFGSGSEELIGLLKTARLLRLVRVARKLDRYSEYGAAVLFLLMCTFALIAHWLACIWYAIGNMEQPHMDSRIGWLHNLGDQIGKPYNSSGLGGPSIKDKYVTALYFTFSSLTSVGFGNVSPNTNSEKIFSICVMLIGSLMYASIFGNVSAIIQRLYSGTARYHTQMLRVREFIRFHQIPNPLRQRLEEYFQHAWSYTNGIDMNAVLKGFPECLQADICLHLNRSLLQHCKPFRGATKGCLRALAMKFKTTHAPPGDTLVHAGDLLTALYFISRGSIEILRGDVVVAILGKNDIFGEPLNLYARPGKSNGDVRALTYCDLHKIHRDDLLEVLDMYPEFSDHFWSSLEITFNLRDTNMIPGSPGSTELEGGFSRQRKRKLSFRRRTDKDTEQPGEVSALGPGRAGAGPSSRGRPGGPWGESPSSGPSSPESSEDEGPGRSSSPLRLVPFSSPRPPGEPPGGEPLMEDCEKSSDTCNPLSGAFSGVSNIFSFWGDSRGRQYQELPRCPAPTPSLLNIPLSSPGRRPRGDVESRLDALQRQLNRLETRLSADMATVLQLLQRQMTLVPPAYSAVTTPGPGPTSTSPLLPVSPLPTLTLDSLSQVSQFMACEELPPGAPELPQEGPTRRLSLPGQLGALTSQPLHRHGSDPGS

hepatocyte CLint (in vitro [1]) [µL/min/1e6 cells]	hepatocyte CLint (in vitro [2]) [µL/min/1e6 cells]	permeability (LLC-PK1; llc-pk1, 3 h, at 1 µg/mL) [%]	efflux ratio at 3 h, 1 ug/ml (MDR)	Ki [3] [nM]	Kb [4] [nM]	SMILES	also measured
92	15	38.2	1.1	–	–	CCN/C(=N\S(=O)(=O)c1ccccc1)N1CC(CC)C=N1 (stereo not given)	–
–	–	–	–	–	–	CCN/C(=N\S(=O)(=O)c1cccc(Cl)c1)N1N=CCC1c1ccccc1 (stereo not given)	permeability (LLC-PK1; LLC-PK1, 3 h): 38.5%
–	–	41	–	–	–	CCN/C(=N\S(=O)(=O)c1cccc(Cl)c1)N1CC(C)(C)C=N1	–
87	11	–	–	4.8	0.316	CCN/C(=N\S(=O)(=O)c1ccc2[nH]ccc2c1)N1CC2(C=N1)CCCC2	–
–	–	39.4	1.3	> 1000	> 1000	CCN/C(=N\S(=O)(=O)c1ccc(OC)c(Cl)c1)N1CC2(C=N1)CCCC2	–
5	1	0.3	–	14.2	–	CCN/C(=N\S(=O)(=O)c1ccc(N)cc1)N1CC2(C=N1)CCNCC2	–
–	–	40.7	1.1	18.5	7.94	CCN/C(=N\S(=O)(=O)c1cccc(O)c1)N1CC2(C=N1)CCCC2	–
–	–	35.2	3.2	97.1	126	CCN/C(=N\S(=O)(=O)c1cccc(OC)c1)N1CC2(C=N1)CCCC2	–
66	34	20.5	2.4	14.6	10	CCN/C(=N\S(=O)(=O)c1ccc(O)c(Cl)c1)N1CC2(C=N1)CCCC2	–
–	27	38.1	–	1.8	–	CCN/C(=N\S(=O)(=O)c1ccc(N)c(Cl)c1)N1CC2(C=N1)CCCC2	–
–	107	–	–	6.1	0.0501	CCN/C(=N\S(=O)(=O)c1cc(O)cc(Cl)c1)N1CC2(C=N1)CCCC2	–
34	4	31.6	2.4	7.2	3.98	CCN/C(=N\S(=O)(=O)c1ccc(N)cc1)N1CC(CC)C=N1 (stereo not given)	–
–	–	36.5	1.8	399	> 1000	CCN/C(=N\S(=O)(=O)c1ccc2c(c1)NCC2)N1CC(CC)C=N1 (stereo not given)	–
20	< 1.4	31.6	3	20.6	–	CCN/C(=N\S(=O)(=O)c1ccc(N)cc1)N1CC(C)(C)C=N1	–
–	–	34.9	4.9	251	> 1000	CCN/C(=N\S(=O)(=O)c1cccc(Cl)c1)N1N=CCC1c1ccc(O)cc1 (stereo not given)	–
87	22	–	–	160	> 1000	CCN/C(=N\S(=O)(=O)c1ccc2[nH]c(C(F)(F)F)cc2c1)N1CC(C)(C)C=N1	–
99	19	–	–	28.6	12.6	CCN/C(=N\S(=O)(=O)c1ccc2[nH]ncc2c1)N1CC2(C=N1)CCCC2	–
–	–	40.4	1.2	210	> 1000	CCN/C(=N\S(=O)(=O)c1ccc(OC)cc1)N1CC2(C=N1)CCCC2	–
–	–	35.7	3.2	97.2	100	CCN/C(=N\S(=O)(=O)c1cccc(N)c1)N1CC2(C=N1)CCCC2	–
53	17	36.5	3.3	7.1	5.01	CCN/C(=N\S(=O)(=O)c1ccc(N)cc1)N1CC2(C=N1)CCCCC2	–
–	–	–	–	47.5	63.1	CCN/C(=N\S(=O)(=O)c1cc(Cl)cc(OC)c1)N1CC2(C=N1)CCCC2	–
87	10	38.5	1.6	1.5	0.794	CCN/C(=N\S(=O)(=O)c1ccc(N)c(Cl)c1)N1CC(CC)C=N1 (stereo not given)	–
–	–	38.2	1.4	206	> 1000	CCN/C(=N\S(=O)(=O)c1ccc(N(C)C)cc1)N1CC(CC)C=N1 (stereo not given)	–
33	8	35.1	2.9	–	3.98	CCN/C(=N\S(=O)(=O)c1ccc(N)cc1)N1CC2(C=N1)CCCC2	IC50 [5]: > 10000 nM; Ki [6]: > 1000 nM; Ki (Cannabinoid receptor): > 1000 nM; fraction unbound [7]: 0.31; logD [8]: 1; Ki [9]: > 1000 nM; Cmax [10]: 1100 ng/mL; bioavailability [11]: 18%; CL/F [12]: 26 mL/min/kg; Ki (Dopamine receptor): > 1000 nM; Tmax [13]: 30 min; Ki [14]: > 1000 nM; Tmax [15]: 30 min; Kp [16]: 0.1; LED (Rattus norvegicus): 20 mg/kg
–	–	34.4	2	8.7	10	CCN/C(=N\S(=O)(=O)c1ccc(NC(C)=O)c(Cl)c1)N1CC(CC)C=N1 (stereo not given)	–
42	21	32	5.9	5.8	3.16	CCN/C(=N\S(=O)(=O)c1ccc(O)cc1)N1CC2(C=N1)CCCC2	–
–	–	37.7	2.8	31.6	79.4	CCN/C(=N\S(=O)(=O)c1ccc2cc[nH]c2c1)N1CC(CC)C=N1 (stereo not given)	–
–	–	36.2	2.7	> 1000	1580	CCN/C(=N\S(=O)(=O)c1cccc(Cl)c1)N1N=CCC1c1ccc(N)cc1 (stereo not given)	–
–	–	36.5	2.6	25	5.01	CCN/C(=N\S(=O)(=O)c1ccc2c(c1)CCN2)N1CC2(C=N1)CCCC2	–
–	1	–	–	11.6	–	CCN/C(=N\S(=O)(=O)c1ccc2[nH]ccc2c1)N1CC2(C=N1)CCNCC2	–
